The test system of assay [1] is riboswitch 15D10. The assay is described as follows: Luciferase reporter with 15D10 riboswitch (Luci-15D10) in HEK 293 cells. Type of assay: cell-based, human. To be noted: Homo sapiens, HEK293, 24 h, 50 μM; HEK 293 cells; Table 2; read-out: Fold increase in riboswitch 15D10-regulated luciferase expression, HEK. The protocol:
Transfection: 3.5×10^4 human embryonic kidney (HEK) 293 cells were plated in a 96-well flat bottom plate the day before transfection. Plasmid DNA (500 ng) was added to a tube or a 96-well U-bottom plate. […] Then, 50 μL of this diluted transfection reagent was added to the DNA, mixed, and incubated at RT for 20 min. Finally, 7 μL of this solution was added to a well of cells in the 96-well plate. Four hours after transfection, medium containing transfection solution was replaced by medium containing either TPP, fursultiamine, prosultiamine, bisbentiamine, beclotiamine hydrochloride, or sulbutiamine as aptamer inducers.
Firefly luciferase assay of cultured cells: Twenty-four hours after media change, plates were removed from the incubator, and equilibrated to RT for several minutes on a lab bench, then aspirated. Glo-lysis buffer (Promega, 100 μL, RT) was added, and the plates allowed to remain at RT for at least 5 minutes. Then, the well contents were mixed by 50 μL trituration, and 20 μL of each sample was mixed with 20 μL of bright-glo reagent (Promega) that had been diluted to 10% in glo-lysis buffer. 96 wells were spaced on an opaque white 384-well plate. Following a 5 min incubation at RT, luminescence was measured using a Tecan machine with 500 ms read time. The luciferase activity was expressed as mean arbitrary light units (ALU)±S.D., and fold induction was calculated as the quotient of the luciferase activity obtained from cells with TPP or analog treatment divided by the luciferase activity obtained from cells without TPP or analog treatment.
On the technique in general: A reporter such as luciferase makes a cellular process visible.

The subject of assay [2] is riboswitch 15D10. The assay is described as follows: Luciferase reporter with 15D10 riboswitch (Luci-15D10) in AML12 cells. Type of assay: cell-based, mouse. The note with it: Mus musculus, AML12, 24 h, 50 μM; AML12 cells; Table 2; read-out: Fold increase in riboswitch 15D10-regulated luciferase expression, AML.

With `COc1ccc2cc(C(=O)S/C(CCO)=C(/C)N(C=O)Cc3cnc(C)nc3N)ccc2c1` [Compound M52, (Z)—S-(2-(N-((4-amino-2-methylpyrimidin-5-yl)methyl)formamido)-5-hydroxypent-2-en-3-yl) 6-methoxynaphthalene-2-carbothioate], the figures for the fold induction at 50 µM with riboswitch 15D10 [1] and in the assay with riboswitch 15D10 [2] were 364 and 195, respectively.

As to `C/C(=C(\CCO)SC(=O)C12CC3CC(CC(C3)C1)C2)N(C=O)Cc1cnc(C)nc1N` [Compound M53, S—((Z)-2-(N-((4-amino-2-methylpyrimidin-5-yl)methyl)formamido)-5-hydroxypent-2-en-3-yl) (3r,5r,7r)-adamantane-1-carbothioate], the fold induction at 50 µM with riboswitch 15D10 [1] turned out to be 2.4; in the assay with riboswitch 15D10 [2] it was 57.

As for `C/C(=C(\CCO)SC(=O)C(C)c1ccccc1)N(C=O)Cc1cnc(C)nc1N` (stereo not drawn) [Compound M54, (Z)—S-(2-(N-((4-amino-2-methylpyrimidin-5-yl)methyl)formamido)-5-hydroxypent-2-en-3-yl) 2-phenylpropanethioate], the fold induction at 50 µM came to 3 with riboswitch 15D10 [1] and 13.9 in the assay with riboswitch 15D10 [2].

In the case of `C/C(=C(\CCO)SC(=O)C(C)(C)Cc1ccccc1)N(C=O)Cc1cnc(C)nc1N` [Compound M55, (Z)—S-(2-(N-((4-amino-2-methylpyrimidin-5-yl)methyl)formamido)-5-hydroxypent-2-en-3-yl) 2,2-dimethyl-3-phenylpropanethioate], the fold induction at 50 µM in the assay with riboswitch 15D10 [1] worked out at 2.1; in the assay with riboswitch 15D10 [2], 9.

For `C/C(=C(\CCO)SC(=O)C1(C)CCCCC1)N(C=O)Cc1cnc(C)nc1N` [Compound M57, (Z)—S-(2-(N-((4-amino-2-methylpyrimidin-5-yl)methyl)formamido)-5-hydroxypent-2-en-3-yl) 1-methylcyclohexane-1-carbothioate], the fold induction at 50 µM in the assay on riboswitch 15D10 [1] was found to be 1.2; in the assay with riboswitch 15D10 [2], 24.4.

In the case of `C/C(=C(\CCO)SC(=O)C(C)(c1ccccc1)c1ccccc1)N(C=O)Cc1cnc(C)nc1N` [Compound M58, (Z)—S-(2-(N-((4-amino-2-methylpyrimidin-5-yl)methyl)formamido)-5-hydroxypent-2-en-3-yl) 2,2-diphenylpropanethioate], the fold induction at 50 µM with riboswitch 15D10 [1] is 1.1; in the assay with riboswitch 15D10 [2], 1.5.

For `C/C(=C(\CCO)SC(=O)C(c1ccccc1)C(C)C)N(C=O)Cc1cnc(C)nc1N` (stereo not drawn) [Compound M59, (Z)—S-(2-(N-((4-amino-2-methylpyrimidin-5-yl)methyl)formamido)-5-hydroxypent-2-en-3-yl) 3-methyl-2-phenylbutanethioate], the fold induction at 50 µM in the assay on riboswitch 15D10 [1] is 1.1; in the assay with riboswitch 15D10 [2], 1.

`C/C(=C(\CCO)SC(=O)C1(C)Cc2ccccc2C1)N(C=O)Cc1cnc(C)nc1N` [Compound M62, (Z)—S-(2-(N-((4-amino-2-methylpyrimidin-5-yl)methyl)formamido)-5-hydroxypent-2-en-3-yl) 2-methyl-2,3-dihydro-1H-indene-2-carbothioate]: the fold induction at 50 µM with riboswitch 15D10 [1] came to 49; with riboswitch 15D10 [2], 110.

As to `C/C(=C(\CCO)SC(=O)C(C)(C)c1ccc2ccccc2c1)N(C=O)Cc1cnc(C)nc1N` [Compound M63, (Z)—S-(2-(N-((4-amino-2-methylpyrimidin-5-yl)methyl)formamido)-5-hydroxypent-2-en-3-yl) 2-methyl-2-(naphthalen-2-yl)propanethioate], the fold induction at 50 µM was 1.7 in the assay on riboswitch 15D10 [1] and 19 with riboswitch 15D10 [2].

Turning to `C/C(=C(\CCO)SC(=O)C(c1ccccc1)c1ccccc1)N(C=O)Cc1cnc(C)nc1N` [Compound M64, (Z)—S-(2-(N-((4-amino-2-methylpyrimidin-5-yl)methyl)formamido)-5-hydroxypent-2-en-3-yl) 2,2-diphenylethanethioate], the results for the fold induction at 50 µM with riboswitch 15D10 [1] and in the assay with riboswitch 15D10 [2] were 2 and 3.9, respectively.

(Values after US12570988B2, “Aptamers that bind thiamine analogs and derivatives” (MeiraGTx Gene Regulation Limited, priority 2020, dated 2026).)
